This test concerns the target T1, HDAC6 (Mus musculus, UniProt Q9Z2V5).
T1 sequence (Q9Z2V5 1-1149): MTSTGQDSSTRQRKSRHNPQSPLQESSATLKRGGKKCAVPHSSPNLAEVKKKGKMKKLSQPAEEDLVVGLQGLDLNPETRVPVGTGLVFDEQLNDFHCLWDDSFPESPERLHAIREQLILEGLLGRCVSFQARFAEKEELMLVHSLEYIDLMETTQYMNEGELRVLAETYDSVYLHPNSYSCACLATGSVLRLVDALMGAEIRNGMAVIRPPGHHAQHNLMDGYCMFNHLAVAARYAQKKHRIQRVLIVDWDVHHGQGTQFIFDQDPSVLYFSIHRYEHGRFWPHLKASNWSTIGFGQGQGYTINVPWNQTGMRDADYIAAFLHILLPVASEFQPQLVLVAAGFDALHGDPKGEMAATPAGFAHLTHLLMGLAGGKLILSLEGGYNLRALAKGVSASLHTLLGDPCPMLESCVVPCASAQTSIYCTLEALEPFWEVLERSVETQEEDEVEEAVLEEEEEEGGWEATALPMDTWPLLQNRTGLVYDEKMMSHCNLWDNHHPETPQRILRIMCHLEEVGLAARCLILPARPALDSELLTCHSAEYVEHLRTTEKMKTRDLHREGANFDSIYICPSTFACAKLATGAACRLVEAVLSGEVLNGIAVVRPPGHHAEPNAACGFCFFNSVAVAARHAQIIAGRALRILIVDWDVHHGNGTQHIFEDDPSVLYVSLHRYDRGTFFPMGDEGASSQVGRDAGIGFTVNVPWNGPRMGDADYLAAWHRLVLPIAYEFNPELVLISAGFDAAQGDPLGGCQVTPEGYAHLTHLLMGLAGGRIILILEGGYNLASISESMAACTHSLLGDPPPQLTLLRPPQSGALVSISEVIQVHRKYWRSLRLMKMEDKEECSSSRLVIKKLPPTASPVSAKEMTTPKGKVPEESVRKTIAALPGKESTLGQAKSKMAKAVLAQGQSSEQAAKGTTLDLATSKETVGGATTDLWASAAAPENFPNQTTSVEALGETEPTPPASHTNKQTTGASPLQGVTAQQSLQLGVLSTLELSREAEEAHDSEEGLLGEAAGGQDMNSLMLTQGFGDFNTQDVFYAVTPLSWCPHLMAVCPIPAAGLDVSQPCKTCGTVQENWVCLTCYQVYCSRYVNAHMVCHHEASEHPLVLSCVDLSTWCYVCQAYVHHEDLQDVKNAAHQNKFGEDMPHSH
Nature of the test: acetylated tubulin immunohistochemistry in brain sections of treated Smo/Smo mice (readout of HDAC6 inhibition in vivo). The format is cell-based.

This note sets out measurements from PMC3739791, “Sonic Hedgehog-Induced Histone Deacetylase Activation Is Required for Cerebellar Granule Precursor Hyperplasia in Medulloblastoma” (PLoS ONE, 2013).

`CN1CCc2c(c3ccccc3n2Cc2ccc(C(=O)NO)cc2)C1` [Tubastatin A]: the “acetylated tubulin immunohistochemistry in brain sections of treated Smo/Smo mic” value was “although tubulin acetylation as a measure for HDAC6 inhibition was increased (Fig. S4)”.
